Laboratory results as given in PMC4086519, “Anti-Trichophyton Activity of Protocatechuates and Their Synergism with Fluconazole” (Evidence-based Complementary and Alternative Medicine : eCAM, 2014).
≈ marks a conversion by molar mass, not a printed value.

How the values were obtained:
[1] = tested on: Trichophyton mentagrophytes; assay: Checkerboard synergism assay with fluconazole; assay type: cell-based; conditions: for MIC, substances alone: checkerboard, 168 hours
Experimental: (§1) The drug activity was assessed using a checkerboard method derived from a standardised procedure established by the National Committee for Clinical Laboratory Standards ([…]-A2). Briefly, the test was performed on the same medium used for susceptibility testing. Volumes of 50 μL of each drug in a concentration four times the final concentration were dispensed in 96-well plates ([…], Switzerland). To each well, 100 μL of the fungal suspension was added to produce a final concentration of 5.0 × 10^3 CFU/mL. As a negative control, we used 200 μL of RPMI, while as a positive control, we used 100 μL of RPMI medium with 100 μL of inoculum. The plates were incubated at 35°C, and the reading was completed after 168 hours. We conducted visual and spectrophotometric readings at 490 nm. To determine the effect of combinatorial fractions, we calculated the fractional inhibitory concentration (FIC). The FIC was calculated by taking the MIC of the substance in combination/MIC of the substance alone. The sum of the fractional inhibitory concentration (FIC) of each substance consists of the fractional inhibitory concentration index: (the MIC of drug A in combination/the MIC of drug A alone) + (the MIC of drug B in combination/the MIC of drug B alone).

Trichophyton rubrum [2] = assay: Checkerboard synergism assay with fluconazole; assay type: cell-based; conditions: for MIC, substances alone: Tr1, checkerboard, 168 hours
Experimental: as §1

[3] = tested on: Trichophyton mentagrophytes; assay: Minimum fungicide concentration (MFC); assay type: cell-based
Experimental: (§2) A qualitative analysis of the fungal viability was performed by transferring a portion of the wells to a plate with Sabouraud (Difco, BD Biosciences) medium and incubating it at 35°C for the time determined for each fungal agent. […] A visual reading was performed to confirm the death or growth inhibition provided by fluconazole and the sixteen semisynthetic substances derived from protocatechuic acid.

Trichophyton rubrum [4] = assay: Minimum fungicide concentration (MFC); assay type: cell-based
Experimental: as §2

[5] = tested on: NOK (oral human keratinocyte) cell lines; assay: Sulphorhodamine B cytotoxicity assay; assay type: cell-based; conditions: NOK cells, 24 hours
Experimental: The cytotoxicity of sixteen semisynthetic compounds derived from protocatechuic acid was assessed using a sulphorhodamine B assay in NOK (oral human keratinocyte) cell lines obtained from the American Type Culture Collection (Manassas, VA, USA). The strains were maintained in bottles appropriate for cell culture with keratinocyte serum free medium (Gibco, Life Technologies) and incubated in standard conditions of 37°C and 5% CO2. Cell concentrations ranging from 2.5 to 5.0 × 10^4 cells/mL were used for the formation of cell monolayers. The concentrations of pure substances were kept in contact with the cells for 24 hours. After the incubation period, the cells were treated with the sulphorhodamine B reagent (Sigma-Aldrich, St. Louis, MO, USA) as previously described by Skehan et al., with some modifications.

[6] = tested on: Trichophyton mentagrophytes; assay: Broth microdilution MIC (CLSI M38-A2, modified); assay type: cell-based; conditions: 35°C, 7 days
Experimental: (§3) To evaluate its antifungal activity, […] of dermatophytes were tested: two clinical strains of Trichophyton rubrum (Tr1 and Tr2), Trichophyton rubrum ATCC MYA 3108, two clinical strains of Trichophyton mentagrophytes (Tm1 and Tm2), and Trichophyton mentagrophytes ATCC 40131 (Tm3). The microorganisms were obtained from the collection of the Clinical Mycology Laboratory of the Department of Clinical Analyses at the School of Pharmaceutical Sciences of Universidade Estadual Paulista (UNESP). The strains were cultivated on Sabouraud dextrose agar (Difco, BD Biosciences) and incubated at 28°C for 7-15 days. For all experiments, the strains were cultivated on Potato Dextrose Agar (Difco, BD Biosciences) and incubated at 28°C as described above or until sporulation. The dilution of the synthetic compounds was performed with DMSO (Synth, Diadema, Sao Paulo, Brazil) as described by Scorzoni et al.. […] The antifungal drugs were diluted according to the CLSI […]-A2 document. Stock solutions of Fluconazole (Sigma-Aldrich, St. Louis, MO, USA) were prepared, considering its power. Serial twofold dilutions were prepared according to the recommendations of Zhang and collaborators, with some modifications. The antifungal activity tests were performed using the broth microdilution method as described in […]-A2, a document produced by the Clinical and Laboratory Standards Institute (CLSI, 2008), with modifications. The medium used was RPMI 1640 with L-glutamine (Sigma-Aldrich, St. Louis, MO, USA) buffered to pH 7.0 with 0.165 M morpholinepropanesulfonic acid (MOPS) (Sigma-Aldrich, St. Louis, MO, USA), supplemented with 2% glucose. […] The suspension of conidia was then transferred to small sterile test tubes where they remained for 40 minutes to separate the microconidia, which were lighter and therefore present in the supernatant. […] These suspensions were diluted in RPMI 1640 (Sigma-Aldrich, St. […] Positive (100 μL of RPMI medium with 100 μL of inoculum) and negative (200 μL of RPMI) controls were included in all experiments. The plates were incubated with agitation at 35°C for 7 days. The MIC reading was performed by spectrophotometry at 490 nm.

Trichophyton rubrum [7] = assay: Broth microdilution MIC (CLSI M38-A2, modified); assay type: cell-based; conditions: 35°C, 7 days
Experimental: as §3

Saccharomyces cerevisiae = tested on: Saccharomyces cerevisiae; design: method as in PMID 14592492; conditions: cited from earlier work
[8] = Tm3, T. mentagrophytes ATCC 40131
[9] = Tr1, T. rubrum clinical isolate
[10] = Tr2, T. rubrum clinical isolate

SMILES | FIC index [1] | MIC of the protocatechuate, substances combined [1] [µg/mL] | association type (in words) [1] | MIC, substances alone ([1]; Tm1) [µg/mL] | MIC, substances alone ([1]; Tm3 (ATCC 40131)) [µg/mL] | FIC index (Trichophyton rubrum [2]) | MIC of the protocatechuate, substances combined (Trichophyton rubrum [2]) [µg/mL] | association type (in words) (Trichophyton rubrum [2]) | MIC, substances alone (Trichophyton rubrum [2]) [µg/mL] | MFC ([3]; Tm1, clinical isolate) [µg/mL] | MFC ([3]; Tm2, clinical isolate) [µg/mL] | MFC [3, 8] [µg/mL] | MFC (Trichophyton rubrum [4]; [9]) [µg/mL] | MFC (Trichophyton rubrum [4]; [10]) [µg/mL] | MFC (Trichophyton rubrum [4]; Tr3, T. rubrum ATCC MYA 3108) [µg/mL] | Cytotoxicity IC50 [5] [µg/mL] | MIC ([6]; Tm1, clinical isolate) [µg/mL] | MIC ([6]; Tm2, clinical isolate) [µg/mL] | MIC [6, 8] [µg/mL] | MIC (Trichophyton rubrum [7]; [9]) [µg/mL] | also measured
CCCCCCOC(=O)c1ccc(O)c(O)c1 [Protocatechuate hexyl, hexyl protocatechuate] | 0.72 | 0.03 | additive | 1.9 | 3.9 | 1.1 | 0.48 | indifferent | 3.9 | 3.90 (≈ 16.4 µM) | 3.9 (≈ 16.4 µM) | 7.80 (≈ 32.7 µM) | 3.9 (≈ 16.4 µM) | 3.90 (≈ 16.4 µM) | 3.9 (≈ 16.4 µM) | 66.5 | 1.95 (≈ 8.18 µM) | 3.9 (≈ 16.4 µM) | 3.90 (≈ 16.4 µM) | 3.9 (≈ 16.4 µM) | reduction in the MIC of the protocatechuate (Trichophyton rubrum [2]): 8.125 times; MIC (Trichophyton rubrum [7]; [10]): 1.95 µg/mL (≈ 8.18 µM); MIC (Trichophyton rubrum [7]; Tr3, T. rubrum ATCC MYA 3108): 3.9 µg/mL (≈ 16.4 µM)
CCCCCCCCCOC(=O)c1ccc(O)c(O)c1 [Protocatechuate nonyl, nonyl protocatechuate] | 1.0 | 0.03 | additive | 3.9 | 3.9 | 1.0 | 0.03 | additive | 1.9 | 3.9 (≈ 13.9 µM) | 3.9 (≈ 13.9 µM) | 3.9 (≈ 13.9 µM) | 1.95 (≈ 6.96 µM) | 3.9 (≈ 13.9 µM) | 3.90 (≈ 13.9 µM) | 52.1 | 3.9 (≈ 13.9 µM) | 3.9 (≈ 13.9 µM) | 3.9 (≈ 13.9 µM) | 1.95 (≈ 6.96 µM) | MIC of fluconazole, substances combined [1]: 0.5 µg/mL; reduction in the MIC of the protocatechuate [1]: 130 fold; reduction in the MIC of the protocatechuate (Trichophyton rubrum [2]): 63.33 times; MIC (Trichophyton rubrum [7]; [10]): 3.9 µg/mL (≈ 13.9 µM); MIC (Trichophyton rubrum [7]; Tr3, T. rubrum ATCC MYA 3108): 1.95 µg/mL (≈ 6.96 µM)
CCCCCCCCOC(=O)c1ccc(O)c(O)c1 [Protocatechuate octyl, octyl protocatechuate] | 0.72 | 0.03 | additive | 1.9 | 3.9 | 1.0 | 0.06 | additive | 1.9 | 3.90 (≈ 14.6 µM) | 1.95 (≈ 7.32 µM) | 3.9 (≈ 14.6 µM) | 1.95 (≈ 7.32 µM) | 7.8 (≈ 29.3 µM) | 1.95 (≈ 7.32 µM) | 54.0 | 1.95 (≈ 7.32 µM) | 1.95 (≈ 7.32 µM) | 3.9 (≈ 14.6 µM) | 1.95 (≈ 7.32 µM) | reduction in the MIC of the protocatechuate (Trichophyton rubrum [2]): 31.66 times; fungicidal activity (Saccharomyces cerevisiae): fungicidal activity; MIC (Trichophyton rubrum [7]; [10]): 7.8 µg/mL (≈ 29.3 µM); MIC (Trichophyton rubrum [7]; Tr3, T. rubrum ATCC MYA 3108): 0.97 µg/mL (≈ 3.64 µM)
CCCCCOC(=O)c1ccc(O)c(O)c1 [Protocatechuate pentyl, pentyl protocatechuate] | 1.0 | 0.03 | additive | 3.9 | 7.8 | 1.0 | 7.8 | additive | 7.8 | 15.6 (≈ 69.6 µM) | 7.8 (≈ 34.8 µM) | 7.8 (≈ 34.8 µM) | 7.8 (≈ 34.8 µM) | 7.8 (≈ 34.8 µM) | 7.8 (≈ 34.8 µM) | 57.0 | 3.90 (≈ 17.4 µM) | 7.8 (≈ 34.8 µM) | 7.8 (≈ 34.8 µM) | 7.8 (≈ 34.8 µM) | MIC of fluconazole, substances combined [1]: 0.5 µg/mL; reduction in the MIC of the protocatechuate [1]: 130 fold; MIC of fluconazole, substances combined (Trichophyton rubrum [2]): 0.12 µg/mL; reduction in the MIC of fluconazole (Trichophyton rubrum [2]): 16.66 times; MIC (Trichophyton rubrum [7]; [10]): 7.8 µg/mL (≈ 34.8 µM); MIC (Trichophyton rubrum [7]; Tr3, T. rubrum ATCC MYA 3108): 7.8 µg/mL (≈ 34.8 µM)
